Laboratory results taken from patent US10393744B2, “Peptides for targeting colorectal cancer, and medical use thereof” (UNIVERSITY OF ULSAN FOUNDATION FOR INDUSTRY COOPERATION, priority 2014, dated 2019).
Entries after “also recorded” stand apart in the source; their conditions may differ.

Assays:
[1] = test system: Radio-resistant colorectal cancer tissue of patient (case C65); test: In vivo/ex vivo imaging and phage elution of Cy5.5-labeled peptide-expressing phages in mouse model transplanted with patient's colorectal cancer tissue (Example 4); parameters: species or system nude mouse; conditions: case C65, irradiated population (2 Gy)
Text: Then, the distributed cancer tissue was kept in a specific preservative solution and transferred directly to an animal chamber, so as to maintain a state in which the cancer tissue was not separated from a patient yet. After an NOD/SCID mouse was anesthetized via intraperitoneal injection of anesthetics, the cancer tissue was cut into pieces each having a size of 3×3 mm. Next, each of both flanks of the NOD/SCID mouse was transplanted with a piece of the cut cancer tissues, and sutured. The NOD/SCID mouse was then recovered on a heating pad for about 2 hours (conditions of the preservative solution: HBSS containing 100 IU/ml penicillin, 100 μg/ml streptomycin, 100 μg/ml gentamicin, 2.5 μg/ml amphotericin B, and 5% fetal bovine serum). After completion of the transplantation, the NOD/SCID mouse was raised until tumors were formed. Meanwhile, the formation and growth of tumors were checked at least once a week. When the transplanted cancer tissues grew to a size of at least 500 mm^3, an extraction process was performed thereon. Then, the extracted cancer tissues were each cut into pieces each having a size of 3×3 mm for subculturing. A nude mouse was anesthetized via intraperitoneal injection of anesthetics, and a piece of the cut cancer tissues was transplanted subcutaneously on the right thigh of the nude mouse. A transplantation site was changed from the flank to the thigh so that irradiation can be locally done without affecting other organs during irradiation. That is, a finally used mouse model transplanted with a patient's colorectal cancer tissue in the present invention was a mouse model established in a way that a cancer tissue that underwent subculturing four times was re-transplanted to form a cancer tissue. When the size of the cancer tissue was increased to about 250 mm^3, only the cancer tissue was irradiated with 2 grays (Gy) of radiation. After having recovery time for no longer than 24 hours, in vivo peptide screening was performed. Here, a non-irradiated population, which is a control group, was also subjected to screening in a separate manner.
In detail, regarding in vivo imaging verification, the peptide-expressing phage was amplified, and a process of linking a fluorescent probe (Cy5.5) was performed. In particular, 1 μg/μl of N-hydroxysuccinimide esters of Cy5.5 (Amersham) was added to 1 mL of bicarbonate buffer (pH 8.3) having the phage concentration of 10^12 plaque forming units (pfu), and then, in a condition where a dark environment was maintained, a phage-surface protein was linked to the Cy5.5 fluorescent probe at room temperature for 3 hours. That is, amine groups of the phage-surface protein were chemically linked to N-hydroxysuccinimide esters of the Cy5.5 fluorescent probe via a covalent bond. The peptide-expressing phages to which the Cy5.5 fluorescent probe was linked were each obtained by precipitation with 170 μl of 20% (w/v) PEG 8000/2.5 M NaCl solution and purification. To determine a proportion of the Cy5.5 fluorescent probe linked to each of the finally obtained phage samples, an IVIS spectrum imaging system (Xenogen) was used for measurement, and region of interest (ROI) values were determined using the software program of a corresponding device.
In addition, on the last day of the in vivo imaging, the cancer tissues were each extracted, to thereby obtain ex vivo images thereof.

[2] = test system: radio-sensitive colorectal cancer tissue (radio-sensitive case 1, other patient); test: In vivo imaging of B5 peptide-expressing phage in other patients' colorectal cancer tissue (Example 7); parameters: species or system mouse; conditions: other patient's radio-sensitive tissue, with and without irradiation
Procedure: (§1) In detail, by extending the crossover experiment verified in Example 4, radio-sensitive case 1 and radio-resistant case 1 regarding other colorectal cancer tissues of a patient characterized as adenocarcinoma were introduced in addition to the radio-sensitive case and the radio-resistant case of Example 1. In the same manner as in Example 4, the B5 peptide-expressing phages were amplified and a process of linking a Cy5.5 fluorescent probe was carried out. Regarding the confirmation of the targeting ability of the B5 peptide, the in vivo imaging was used for observation in the same manner as in Example 5. […] In detail, the targeting ability of the B5 peptide sequence targeting a factor inducing resistance against radiation during radiation therapy in Example 6 was also verified in other colorectal cancer tissues of a radio-resistant patient, thereby confirming the possibility of the B5 peptide sequence as a sequence that is responsive to cancer microenvironments causing induction of resistivity during radiotherapy on colorectal cancer. However, in the patients having radio-sensitive colorectal cancer, it was clearly confirmed that the B5 peptide sequence, as a peptide sequence showing no targeting ability regardless of irradiation, was a sequence selectively tracing a radio-resistant factor. […]

[3] = test system: radio-resistant colorectal cancer tissue (radio-resistant case 1, other patient); test: as above; parameters: species or system mouse; conditions: other patient's radio-resistant tissue, with and without irradiation
Procedure: as §1

[4] = test system: colorectal cancer tissue of radio-resistant case (case C65) and radio-sensitive case (case C87); test: Crossover in vivo imaging of B5 peptide-expressing phage in 4 populations (Example 5); parameters: species or system mouse; conditions: 4 populations (C65 and C87, irradiated and non-irradiated); tail vein injection, images until 7th day; compared with Cy5.5 dye and empty phage
Procedure: Among the various peptide-expressing phages selected from the above, the in vivo imaging was attempted again for a B5 peptide, which is a peptide sequence screened only from the irradiated population in the radio-resistant case (case C65). At the same time, to confirm the responsiveness in control groups other than the population of interest, a crossover experiment was carried out. In detail, in the presence of differences in irradiation between the radio-sensitive case and the radio-resistant case of Example 1, the in vivo imaging was carried out to determine the targeting of the B5 peptide sequence in 4 populations in total. Here, the irradiated population of case C65 was set as an experimental group while the non-irradiated population of case C65 and all the populations of case C87 were set as control groups. In the same manner as in Example 4, peptide-expressing phages were amplified and a process of linking a Cy5.5 fluorescent probe was carried out. Then, through the tail vein injection in each population, images thereof were observed until the end of the last 7th day. […]

[5] = test system: radio-resistant colorectal cancer patient case (C65) cancer tissue; test: Immunohistochemical staining of extracted cancer tissues with anti-M13 antibody (Example 6); assay type: in vivo, mouse; conditions: cancer tissues of each population extracted after imaging
Procedure: To verify histological targeting ability of the B5 peptide sequence verified in Example 5, the imaging of the B5 peptide sequence was obtained. Then, cancer tissues of each population were extracted to prepare paraffin blocks and slices. In detail, (1) the extracted cancer tissues were immersed in a formaldehyde solution at room temperature for 24 hours in terms of for immobilization. Then, following a dehydration process, paraffin was added to the solution through penetration to form paraffin blocks. Afterwards, a microtome was used to manufacture slices having a thickness of 3 μm. To perform real immunohistological staining, (2) following a deparaffinization process performed on the slices, (3) an unmasking process was performed so that structures of various proteins immobilized to the tissue slices were recovered to restore sites where antibodies normally bind. Sequentially, (4) a blocking process was performed using a 5% BSA solution, (5) primary antibodies were bound (wherein the antibodies used herein were anti-mouse M13 IgG recognizing M13 phage capsid proteins), (6) and secondary antibodies were bound while HRP was bound. Afterwards, (7) sites where phages were present were stained using DAB development, (7) the nuclei […] were stained with hematoxylin, and (8) a dehydration process was performed thereon. […]

TPSFSKI [B5]
in vivo ROI ([1]; Cy5.5 fluorescence total flux standardized to Cy5.5 dye control): 4.07 | pfu/mg (concentration of eluted phages relative to weight of cancer tissue) ([1]; extracted cancer tissue): 209.47 pfu/mg | ex vivo ROI ([1]; extracted cancer tissue, standardized to Cy5.5 dye control): 2.43 | targeting ability by in vivo imaging [2]: did not show any targeting ability regardless of irradiation | targeting ability by in vivo imaging [3]: exhibited targeting ability only in the case of irradiation | targeting ability by in vivo imaging (crossover experiment) [4]: specific binding of a B5 peptide sequence only to an irradiated population in radio-resistant case; also recorded: only the irradiated population of the radio-resistant case (case C65) has exhibited excellent targeting ability | histological targeting ability (immunohistochemical staining of phage) [5]: excellent targeting ability; also recorded: specifically bound only to the irradiated population in the radio-resistant colorectal cancer patient case (C65)
